The results in this text go back to PubChem BioAssay AID1197 (NMMLSC, 2008).

The source made the active and inactive calls. The rule behind the calls is not given here.

The nature of assay [1]: LNCaP cell killing by flow cytometry event count, dose response, cytotoxicity control for prostate cell differentiation activator project (AID 1197). The following applies: LNCaP cell loss, flow cytometry event count, 4 d; at 30 µM (top of the series). For orientation: In flow cytometry, cells or beads pass a laser one at a time.
In assay [2] the test system is LNCaP cell loss, flow cytometry event count, 4 d. The assay is described as above.

Turning to `Cc1ccccc1-c1nc(CN2CCC(C(=O)NCCCN3CCCC3)CC2)c(C)o1`, the event count (lower = more killing) in assay [1] was 76.5% (inactive).

For `CC1CCCCN1CCNC(=O)c1ccc2c(=O)n(CCc3ccccc3)c(=O)[nH]c2c1` (stereo not drawn), in assay [1], the event count (lower = more killing) is 191% (inactive).

`CCN(CC)CC(=O)Nc1ccc(-c2nc3cc(NC(=O)CN(CC)CC)ccc3o2)cc1`: the event count (lower = more killing) in assay [1] is 98.5% (inactive).

As for `O=C(NCCCN1CCN(c2ccc(F)cc2)CC1)c1cccc(N2CCCC2=O)c1`, the event count (lower = more killing) in assay [1] is 191% (inactive).

Broadly, the EC50 is the concentration needed to bring the measured effect to its halfway point. Regarding `Cn1c(=O)cc(OCC(=O)NCCCN2CCN(c3ccccc3F)CC2)c2ccccc21`, in assay [2], the concentration giving a half-maximal response (EC50) was 0.101 µM.

As to `CCCOc1ccccc1C1CC(=O)Nc2cc3c(cc21)OCO3` (stereo not drawn), the event count (lower = more killing) in assay [1] was 21.8% (inactive).

As for `CCN(CC)CCNC(=O)c1cc2c(-c3ccc(Cl)cc3)nn(C)c2s1`, the event count (lower = more killing) in assay [1] was 140% (inactive).

As for `Cc1cccc(-c2nsc(SCC(=O)Nc3nccs3)n2)c1`, in assay [1], the event count (lower = more killing) is 296% (inactive).

In the case of `Cn1nc(-c2ccc(Cl)cc2)c2cc(C(=O)NCCCN3CCCC3)sc21`, the EC50 in assay [2] was 13 µM (inactive).

As for `CCOc1cccc2cc(-c3cn4cc(C)ccc4n3)c(=O)oc12`, in assay [1], the event count (lower = more killing) is 76.2% (inactive).

Turning to `Cc1ccccc1-c1nc(CN2CCC(C(=O)NCCCN3CCOCC3)CC2)c(C)o1`, the event count (lower = more killing) in assay [1] was 109% (inactive).

In the case of `COc1ccc(CCn2c(=N)c(C(=O)NCc3ccco3)cc3c(=O)n4ccccc4nc32)cc1`, the event count (lower = more killing) in assay [1] is 37.8% (inactive).

For `Cn1c(C(=O)NCCCN2CCN(c3cccc(Cl)c3)CC2)cc2c(=O)n(C)c3ccccc3c21`, in assay [1], the event count (lower = more killing) was 137% (inactive).

Take `CC(C)(C)c1ccc(C(O)CCCN2CCC(C(O)(c3ccccc3)c3ccccc3)CC2)cc1` (stereo not drawn): in assay [1], the event count (lower = more killing) is 23.5% (inactive).

As for `Cc1ccccc1CS(=O)(=O)CCC(=O)NCCCN1CCN(c2ccccc2F)CC1`, in assay [2], the EC50 was 6.85 µM.

On to `CCOC(=O)c1[nH]c(C)c(C(=O)N2CCc3ccccc32)c1C`, for which, in assay [2], the concentration giving a half-maximal response (EC50) was 0.888 µM.

On to `O=C(NCCCN1CCN(c2cccc(Cl)c2)CC1)c1cccc(N2CCCC2=O)c1`, for which the event count (lower = more killing) in assay [1] is 305% (inactive).

As for `Cc1cc(N2CCN(C)CC2)nc2ccc(NC(=O)c3ccc(Br)o3)cc12`, the event count (lower = more killing) in assay [1] was 422% (inactive).

Turning to `CCN1CCCC1CNC(=O)C1CCN(Cc2nc(-c3cccc(Br)c3)oc2C)CC1` (stereo not drawn), the concentration giving a half-maximal response (EC50) in assay [2] was 6.68 µM.

In the case of `COc1cc2nc(N3CCN(C(=O)C4COc5ccccc5O4)CC3)nc(N)c2cc1OC` (stereo not drawn), the event count (lower = more killing) in assay [1] is 104% (inactive).

Consider `CC1CCCCN1CCNC(=O)c1cc2c(-c3ccccc3F)nn(C)c2s1` (stereo not drawn), for which the event count (lower = more killing) in assay [1] was 103% (inactive).

Turning to `Cc1cc(C)nc(N2CCC(C(=O)Nc3ccc(Oc4ccccc4)cc3)CC2)n1`, in assay [1], the event count (lower = more killing) is 170% (inactive).

With `CCOC(=O)c1ccccc1NC(=O)Cn1c(-c2nonc2N)nc2ccccc21`, the event count (lower = more killing) in assay [1] is 116% (inactive).

With `CCn1c(=O)cc(SCC(=O)NCCN2CCN(Cc3ccccc3)CC2)c2ccccc21`, the event count (lower = more killing) in assay [1] is 306% (inactive).

Regarding `O=c1cc(-c2ccccc2)[nH]c2ccccc12`, the event count (lower = more killing) in assay [1] was 83.8% (inactive).

Consider `CN(C)CCCN1c2ccccc2CCc2ccc(Cl)cc21`, for which the event count (lower = more killing) in assay [1] is 32.2% (inactive).

With `CN(CCNC(=O)C1CC(=O)N(c2ccc(F)c(Cl)c2)C1)Cc1ccccc1` (stereo not drawn), the event count (lower = more killing) in assay [1] was 343% (inactive).

Regarding `CCn1c(=O)cc(SCC(=O)NCCCN2CCN(c3ccccc3F)CC2)c2ccccc21`, in assay [1], the event count (lower = more killing) is 210% (inactive).

As to `CC(C)N1CCC2(CC1)N=C(c1ccc3c(c1)OCO3)CC(c1cc(Cl)ccc1O)N2` (stereo not drawn), the EC50 in assay [2] was 1.94 µM.

Take `CCOc1ccc(-c2cc(C(=O)NCCCN3CCN(CC)CC3)c3ccccc3n2)cc1`: the EC50 in assay [2] is 21.7 µM (inactive).

Regarding `CCCS(=O)(=O)N1CCCC(C(=O)NCCCN2CCN(c3ccc(F)cc3)CC2)C1` (stereo not drawn), the event count (lower = more killing) in assay [1] is 238% (inactive).

Consider `CCN(CC)CCNC(=O)c1ccc(N2CCCCC2)c(NS(=O)(=O)c2ccc(C)cc2)c1`, for which, in assay [1], the event count (lower = more killing) is 70.8% (inactive).

Turning to `O=C(CCN1C(=O)COc2ccccc21)NCCCN1CCN(c2ccc(F)cc2)CC1`, the event count (lower = more killing) in assay [1] is 279% (inactive).

Take `Oc1c(CN2CCCCC2)cc(COCc2ccccc2)c2cccnc12`: the event count (lower = more killing) in assay [1] is 137% (inactive).

Consider `CCOc1ccc(NC(=O)COc2nsnc2N2CCCCC2)cc1`, for which, in assay [1], the event count (lower = more killing) was 160% (inactive).

For `CN1CCN(CCCNC(=O)c2cc3c(-c4ccc(Cl)cc4)nn(C)c3s2)CC1`, the EC50 in assay [2] is 12.6 µM (inactive).

Consider `CCN(CC)CCCNC(=O)c1cc2c(-c3ccc(Cl)cc3)nn(C)c2s1`, for which, in assay [1], the event count (lower = more killing) was 22.2% (inactive).

In the case of `CCN1CCN(CCNC(=O)C2CCN(Cc3nc(-c4ccc(Cl)cc4)oc3C)CC2)CC1`, in assay [1], the event count (lower = more killing) is 83.2% (inactive).

As to `CCc1ccc(-c2nc(CN3CCC(C(=O)NCc4ccc(F)cc4)CC3)c(C)o2)cc1`, the EC50 in assay [2] was 5.17 µM.

As for `Cc1noc(/C=C/c2ccco2)c1S(=O)(=O)N1CCC(C(=O)N2CCc3ccccc3C2)CC1`, the 50% effective concentration (EC50) in assay [2] is 4.53 µM.

Turning to `COc1ccc2cc3cc(C(=O)Nc4ccccc4N4CCN(C)CC4)oc3nc2c1`, the EC50 in assay [2] was 19.3 µM (inactive).

`COc1ccc(-c2ccc(-c3noc(-c4ccccc4)n3)c(OC)n2)cc1`: in assay [1], the event count (lower = more killing) is 153% (inactive).

Consider `Cc1ccc(CNc2nc3ccccc3n3nnnc23)cc1`, for which the event count (lower = more killing) in assay [1] was 128% (inactive).

As for `CCN1CCN(c2ncc(C(=O)Nc3cc(Cl)c(OC)cc3OC)c3ccccc23)CC1`, the event count (lower = more killing) in assay [1] was 208% (inactive).

Regarding `COc1ccccc1NC(=O)c1nc[nH]c1C(=O)Nc1ccccc1OC`, in assay [1], the event count (lower = more killing) was 87.2% (inactive).

As for `Cc1cc(N2CCN(C)CC2)nc2ccc(NC(=O)c3ccc4c(c3)OCO4)cc12`, the event count (lower = more killing) in assay [1] is 80.5% (inactive).

Take `Clc1ccc(COC(Cn2ccnc2)c2ccc(Cl)cc2Cl)cc1` (stereo not drawn): in assay [1], the event count (lower = more killing) was 223% (inactive).

As to `Cc1ccc2c(c1)-c1c(cnn1CC(=O)Nc1ccccc1N1CCN(C)CC1)CO2`, the event count (lower = more killing) in assay [1] is 163% (inactive).

On to `CCCc1cc(-c2n[nH]c(C)c2-c2ccc(C(=O)OCC)o2)c(O)cc1O`, for which the event count (lower = more killing) in assay [1] was 98.2% (inactive).

Turning to `CCOC(=O)c1c(C)n(C)c2ccc(OCC(O)CNC(CC)CO)cc12` (stereo not drawn), in assay [1], the event count (lower = more killing) was 115% (inactive).

In the case of `CCN1CCCC1CNC(=O)c1cc2c(-c3ccc(Cl)cc3)nn(C)c2s1` (stereo not drawn), the event count (lower = more killing) in assay [1] was 27.8% (inactive).

For the compound `CN1CCN(c2cc3c(c4c2[nH]c2ccccc24)C(=O)CC(C)(C)C3)CC1`, the event count (lower = more killing) in assay [1] is 48.8% (inactive).

As for `Cc1nc2ncnn2c(C)c1CCC(=O)NCCCN1CCN(c2cccc(Cl)c2)CC1`, in assay [1], the event count (lower = more killing) is 374% (inactive).

`CN(CC(O)COc1ccc(OCC(O)CN(C)C2CCCCC2)cc1)C1CCCCC1` (stereo not drawn): in assay [1], the event count (lower = more killing) is 126% (inactive).

As for `COc1ccc(N2CCN(CCCNC(=O)c3cc4sccc4n3C)CC2)cc1`, in assay [1], the event count (lower = more killing) is 282% (inactive).

Regarding `CCOc1ccccc1NC(=O)c1nc[nH]c1C(=O)Nc1ccccc1OCC`, the event count (lower = more killing) in assay [1] is 257% (inactive).

For `O=C(Cn1cc2c(n1)CCCC2)NCCCN1CCN(c2ccccc2F)CC1`, the event count (lower = more killing) in assay [1] is 333% (inactive).

Take `C[C@H]1CCC/C=C/C2C[C@H](O)CC2[C@H](O)/C=C/C(=O)O1` (stereo partly drawn): the event count (lower = more killing) in assay [1] is 12.8% (inactive).

Turning to `Cc1oc(-c2ccc(Cl)cc2)nc1CN1CCC(C(=O)N2CCN(Cc3ccccc3)CC2)CC1`, the event count (lower = more killing) in assay [1] was 91.8% (inactive).

In the case of `COc1ccc(N2CCN(CCCNC(=O)CCCn3c(=O)[nH]c4ccsc4c3=O)CC2)cc1`, the event count (lower = more killing) in assay [1] is 175% (inactive).

Consider `Cc1ccc(Cl)cc1N1CCN(C(=O)c2cc3c(=O)n(C)c4ccccc4c3n2C)CC1`, for which the event count (lower = more killing) in assay [1] was 26.8% (inactive).

`Cc1ccc(Nc2cc(=O)n(C3CCCCC3)c(=O)[nH]2)cc1C`: in assay [1], the event count (lower = more killing) is 55.5% (inactive).

As to `Cc1ccccc1-c1nc(CN2CCCC(C(=O)NCCCN3CCOCC3)C2)c(C)o1` (stereo not drawn), in assay [1], the event count (lower = more killing) was 187% (inactive).

For `O=C(c1ccccc1)c1ccc(N2CCNCC2)cc1`, the event count (lower = more killing) in assay [1] is 236% (inactive).

On to `Cc1ccc(C)c(N2CCN(CCCNC(=O)Cn3cc4c(n3)CCCCC4)CC2)c1`, for which the event count (lower = more killing) in assay [1] was 71.8% (inactive).

For the compound `Cc1ccccc1-c1nc(CN2CCC(C(=O)NCCCN3CC(C)CC(C)C3)CC2)c(C)o1` (stereo not drawn), in assay [1], the event count (lower = more killing) is 108% (inactive).

In the case of `COC(=O)c1cc(-c2ccccc2)sc1NC(=O)c1cc(C)on1`, in assay [1], the event count (lower = more killing) was 394% (inactive).

Consider `CCN1CCN(c2cc(C)c3cc(NC(=O)c4ccc(Br)o4)ccc3n2)CC1`, for which the event count (lower = more killing) in assay [1] is 55.2% (inactive).

As to `CCn1c(=N)n(CC(O)COc2cccc(C)c2)c2ccccc21` (stereo not drawn), the event count (lower = more killing) in assay [1] is 275% (inactive).

Take `Cc1ccccc1-c1nc(CN2CCC(C(=O)NCc3cccnc3)CC2)c(C)o1`: the event count (lower = more killing) in assay [1] was 295% (inactive).

As for `O=S1(=O)C=C(Sc2nc3ccccc3s2)c2ccccc21`, in assay [1], the event count (lower = more killing) was 150% (inactive).

`Nc1ccc(-n2ccnc2)cc1`: the event count (lower = more killing) in assay [1] was 282% (inactive).

As to `Cn1c(=O)[nH]c(=O)c2c1nc(Br)n2CCCSc1nc2ccccc2o1`, the event count (lower = more killing) in assay [1] was 150% (inactive).

For `CN(C)c1ccc(CNC2CC(C)(C)NC(C)(C)C2)cc1`, the event count (lower = more killing) in assay [1] was 284% (inactive).

On to `COc1ccc(N2CCN(CCCNC(=O)CC3Oc4ccc(C)cc4NC3=O)CC2)cc1` (stereo not drawn), for which the event count (lower = more killing) in assay [1] was 343% (inactive).

In the case of `COc1ccc(Cc2nc(-c3ccc(-n4cccc4)cc3)no2)cc1OC`, the event count (lower = more killing) in assay [1] is 104% (inactive).

Take `CCN1CCN(C(c2cccs2)C(C)NS(=O)(=O)c2ccc(Br)cc2)CC1` (stereo not drawn): the event count (lower = more killing) in assay [1] was 282% (inactive).

Regarding `Cn1c(=O)cc(SCC(=O)NCCCN2CCN(c3ccccc3F)CC2)c2ccccc21`, the event count (lower = more killing) in assay [1] was 258% (inactive).
